Source: ChEMBL document CHEMBL3044777, “Weed control and sweet maize (Zea mays L.) yield as affected by pyroxasulfone dose” (2011)

What was measured:
Assay type in all cases: functional
[1] = system: Amaranthus retroflexus; test: Herbicide activity against Amaranthus retroflexus assessed as weed control measured after pre-emergence treatment in southwestern ontario
[2] = system: Amaranthus palmeri; test: Herbicide activity against Amaranthus […] (Moq.) Sauer. assessed as weed control at 152 g/ha
[3] = system: Chenopodium album; test: Herbicide activity against Chenopodium album assessed as weed control measured after pre-emergence treatment in southwestern ontario
[4] = system: Amaranthus palmeri; test: Herbicide activity against Amaranthus palmeri S.Watson assessed as weed control at 125 g/ha
[5] = system: Setaria viridis; test: Herbicide activity against Setaria viridis (green foxtail) assessed as weed control measured after pre-emergence treatment in southwestern ontario
[6] = system: Digitaria; test: Herbicide activity against Digitaria assessed as weed control at 274 g/ha in presence of 2% organic matter on soil
[7] = system: Abutilon theophrasti; test: Herbicide activity against Abutilon theophrasti (velvetleaf) assessed as weed control at 31.25 g/ha
[8] = system: Amaranthus; test: Herbicide activity against Amaranthus sp. assessed as weed control at 1000 g/ha
[9] = system: Echinochloa crus-galli; test: Herbicide activity against Echinochloa crus-galli (barnyard grass) assessed as weed control at 31.25 g/ha
[10] = system: Digitaria sanguinalis; test: Herbicide activity against Digitaria sanguinalis assessed as weed control at 31.25 g/ha

Work on `Cn1nc(C(F)(F)F)c(CS(=O)(=O)C2=NOC(C)(C)C2)c1OC(F)F` [PYROXASULFONE] yielded an I90 [1] of 93 g/ha, an Activity [2] of 90% and an I90 [3] of 499 g/ha. It also gave an Activity [4] of 95%, an I90 [5] of 111 g/ha and an Activity [6] of 90%. It also gave an Activity [7] of 90%, an Activity [8] of 90% and an Activity [9] of 90%. For the same compound, the Activity [10] was 90%.
